Measurements from US20020132823A1, “Assay method” (priority 2001, published 2002).

Experiments:
[1] = test system: TNFα release from human peripheral blood mononuclear cells; test: TNFα release from human PBMCs (LPS/γ-interferon stimulated, ELISA); format: cell-based; settings: PBMC, LPS 5 μg/ml + γ-interferon 100 U/ml, 3 hours
Procedure: (§1) 2. TNFα and IL-1 Release from Human PBMCs
(§2) Cell Separation and Culture
(§3) All cell culture and ELISA work was done on 96 well plates (Costar). Mononuclear cells were prepared from the blood of healthy volunteers using ficoll-hypaque density separation according to the method of Hansel et al (Hansel TT et al. (1991) An improved immunomagnetic procedure for the isolation of highly purified human blood eosinophils. J. Imm. Methods 145, 105-110) and used at a concentration of 100,000 cells/well in RPMI 1640, 5% FCS (Gibco). Serial dilution of the test compound were made in DMSO and diluted with culture medium. Final DMSO concentration in the culture medium was 0.1%. […]
For ELISA determination, supernatants were diluted 1:1 and added into a plate coated with the anti humanTNF monoclonal antibody (357-101-4, clone 92030603 from European Collection of Animal Cell Cultures, antibody produced and purified within Novartis Pharma, 1 μg/ml in PBS) After overnight incubation, the plates were washed (4×) and biotinylated anti humanTNF monoclonal antibody 2-179-E11 (clone 92030602 (European Collection of Animal Cell Cultures), produced and purified in Novartis Pharma) was added to a final concentration of 1 μg/ml (100 μl/well). […] Color formation was monitored in a Bio-Tec ELx 808 plate reader at 405 nm in the kinetic mode for 30 minutes. […]

[2] = Cytotoxicity in THP-1 cells (MTT); format: cell-based; settings: human, THP-1 cells stimulated with LPS/IFNγ, LPS/IFN stimulated
Procedure: THP-1 cells are obtained from ATCC and stored in liquid nitrogen. Medium for growth of THP-1 cells: RPMI 1640(GIBCO)+10% fetal bovine serum (GIBCO)+L-glutamine (2 mM)+penicillin/streptomycin (100 U/ml) +β-mercaptoethanol (0.05 mM). Cell culture medium for THP-1 incubation: RPMI 1640(GIBCO)+5% fetal bovine serum (GIBCO)+L-glutamine (2 mM)+penicillin/streptomycin (100 U/ml)+β-mercaptoethanol (0.05 mM).
The solution for stimulation is prepared by mixing equal volumes of IFNγ (Boehringer Mannheim, 2000 U/ml) and LPS (Sigma, L8274, 100 μg/ml). The dye solution is prepared from 500 mg MTT (Sigma, M2128) in 100 ml phosphate buffered saline (PBS) and kept under sterile conditions at 4° C. Sodium dodecyl sulfate (SDS) solution (10%) is made from 50 g SDS (Bioprobe Systems) and 5 ml 1N HCl. The solution is made up to 500 ml with distilled water and kept at room temperature (precipitates in the fridge). All incubations are done at 37° C. in 5% CO2. […]
The absorbance at 540 nm is read with a microplate reader (Biotec 808 Elx). […]
Calculation of cytotoxicity: The absorbance corresponding to 100% cytotoxicity equals the absorbance of wells without cells (no MTT converted into the blue dye). The absorbance corresponding to no cytotoxicity is taken from wells without substance, but with control solvent. Percent cytotoxicity is calculated for each substance concentration.

Recombinant human Prak = target: T1, Recombinant human Prak (Homo sapiens, UniProt Q8IW41); test: In vitro kinase assay Prak (HSP27 phosphorylation, 33P-ATP); format: biochemical; settings: activated recombinant human Prak, His-HSP27 substrate, 1 h at room temperature
T1 construct: His6; made in house; host or cells: E. coli
T1 sequence (Q8IW41 1-471 isoform Q8IW41-2): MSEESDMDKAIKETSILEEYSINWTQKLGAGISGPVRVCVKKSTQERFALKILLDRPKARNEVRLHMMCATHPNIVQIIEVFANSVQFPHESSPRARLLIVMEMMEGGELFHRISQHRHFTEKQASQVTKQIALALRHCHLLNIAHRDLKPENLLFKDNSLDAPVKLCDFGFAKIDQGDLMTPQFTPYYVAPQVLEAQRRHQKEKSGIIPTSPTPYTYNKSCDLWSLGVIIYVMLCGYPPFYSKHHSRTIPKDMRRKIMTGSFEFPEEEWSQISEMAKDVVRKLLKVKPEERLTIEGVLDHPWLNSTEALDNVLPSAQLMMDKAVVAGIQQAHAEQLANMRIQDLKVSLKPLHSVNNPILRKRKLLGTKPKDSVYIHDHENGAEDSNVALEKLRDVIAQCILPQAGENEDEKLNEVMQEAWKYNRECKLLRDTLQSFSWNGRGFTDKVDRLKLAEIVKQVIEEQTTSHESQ
Procedure: Recombinant human Prak was expressed in E. coli as His6-tagged protein substantially as described for Mnk1 by Tschopp et al. (Tschopp et al. (2000) Phoshorylation of eIF-4E on Ser 209 in response to mitogenic and inflammatory stimuli is faithfully detected by specific antibodies. Molecular Cell Biology Res. Comm. 3, 205-211). Phospho-p38a and His6-Hsp27 was prepared substantially as described (New et al. and Tschopp et al. ibid). All kinase reactions were performed with the following reaction buffer. Kinase buffer (5×): 125 mM Hepes (Stock at 1M; Gibco #15630-056), 125 mM β-glycerophosphate (Sigma #G-6251):125 mM MgCl2 (Merck #5833); 0.5 mM Sodium orthovanadate (Sigma #5-6508), 10 mM DTT (Boehringer Mannheim #708992), pH 7.4. The (5×) kinase buffer is freshly prepared from 25× stock solution. DTT is stored frozen at −20° C. in small aliquots and added immediately before use.
Prior to the assay, recombinant Prak is phosphorylated by incubation with phospho-p38. […]
The assay is stopped after one hour of incubation at room temperature by the addition of 5 μl EDTA 0.5M. […] After washing and drying the membrane, incorporated label is quantified by liquid scintillation counting.

[3] = test system: IL-6 production in human dermal fibroblasts; test: IL-6 production in human dermal fibroblasts (IL-1β stimulated, ELISA); format: cell-based; settings: Fibroblast, 1 μM compound, IL-1β 100 pg/ml, 16-17 h
Procedure: 4. IL-6 Production in Human Dermal Fibroblasts
Human dermal foreskin fibroblasts were obtained from Clonetics (CC-2509) and grown in FBM (Clonetics, CC-3131 ) including bFGF (1 ng/ml, CC-4065), insulin (5 μg/ml, CC-4021), and 2% FCS (CC-4101).
For induction of IL-6, cells were seeded at a density of 10^4 cells per well in a 48 well tissue cluster. The following day, cells were starved for 6-7 h in FBM containing 2% FCS. Compounds were added at final concentrations of 10 and 1 μM 30 min prior to stimulation with recombinant human IL-1β (100 pg/ml).
Cell supernatant was taken 16-17 h after stimulation and the amount of released IL-6 determined in a sandwich ELISA.
ELISA microtiter plates were coated with a murine anti-human IL-6 MAb (314-14 (Novartis Pharma; batch EN23,961, 5.5 mg/ml); 100 μl at 3 μg/ml) in PBS 0.02% NaN3 and incubated overnight at +4° C., The following day, microtiter plates were washed 4 times with PBS/0.05% Tween/0.02% NaN3 and blocked with 300 μl of PBS/3% bovine serum albumin (BSA)/0.02% NaN3 for 3 h. […] Plates were read in a microtiter reader (Bio-Rad) using filters of 405 and 490 nm. IL-6 levels in culture supernatants were calculated in reference to the standard curve using the cubic curve fit. Percentage inhibitions and IC50 values were calculated

[4] = test system: IL-1β release from human peripheral blood mononuclear cells; test: IL-1β release from human PBMCs (LPS/γ-interferon stimulated, ELISA); format: cell-based; settings: PBMC, LPS 5 μg/ml + γ-interferon 100 U/ml, 4.5 hours
Procedure: as §1, §2
as §3, with “0.1%. Compound were preincubated with the cells for 30 minutes at 37° C., 5% CO2. Then, the cells were stimulated with LPS (5 μg/ml, Sigma) and γ-interferon (100 U/ml, Boehringer Mannheim) and cultured for 3 hours (for TNFα-determination) or 4.5 hours (for Il-1 β and Il-6 determination).” for “0.1%.”
ELISA microtiter plates were coated with a murine anti-human IL-1^2 MAb (Human IL-1^2 Cytoset (Biosource International Inc., #CHC1214), 100 μl at 1 μg/ml) in PBS 0.02% NaN3 and incubated overnight at +4° C., The following day, microtiter plates were washed 4 times with PBS/0.05% Tween/0.02% NaN3 and blocked with 300 μl of PBS/2% bovine serum albumin (BSA)/0.02% NaN3 for 3 h. […] Plates were read in a microtiter reader (Bio-Rad) using filters of 405 and 490 nm.

**Q.** For `O=S(=O)(c1ccc(Nc2nccc(N3CCCc4c(O)cccc43)n2)cc1)N1CCCCC1` [Compound A], which IC50 [1] is on record?
**A.** Its IC50 is 2.2 µM.

**Q.** And the IC50 at 24 h [2]?
**A.** The IC50 at 24 h was > 30 µM.

**Q.** And the IC50 (Recombinant human Prak)?
**A.** Its IC50 is 1.1 µM.

**Q.** And the inhibition at 1 µM [3]?
**A.** The inhibition at 1 µM was 100%.

**Q.** What about the IC50 [4] of the same molecule?
**A.** The IC50 was 1.1 µM.
